Test results: patent US20080261994A1, “CYCLOPROPANE COMPOUNDS AND PHARMACEUTICAL USE THEREOF” (Japan Tobacco Inc., priority 2003, published 2008)
Where two headings read alike, the source gives them in different places.

What was measured:
Format in all cases: biochemical
[1] = target: T1, MMP-1 (Homo sapiens, UniProt P03956); assay: MMP-1 inhibitory action (Type I collagen Activity Measurement kit, FITC-labeled collagen type I)
T1 sequence (P03956 100-469): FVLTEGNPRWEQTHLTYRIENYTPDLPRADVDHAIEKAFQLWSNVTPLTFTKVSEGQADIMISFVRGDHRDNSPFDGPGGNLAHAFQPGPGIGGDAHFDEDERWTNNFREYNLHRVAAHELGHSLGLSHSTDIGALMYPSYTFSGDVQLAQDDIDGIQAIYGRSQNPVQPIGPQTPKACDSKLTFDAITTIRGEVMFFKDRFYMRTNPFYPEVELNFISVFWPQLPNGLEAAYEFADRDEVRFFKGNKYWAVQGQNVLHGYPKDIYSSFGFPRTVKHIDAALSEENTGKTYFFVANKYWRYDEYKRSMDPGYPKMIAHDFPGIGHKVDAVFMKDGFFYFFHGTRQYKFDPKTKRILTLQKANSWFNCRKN

[2] = target: T2, aggrecanase-1 (Homo sapiens, UniProt O75173); assay: Aggrecanase-1 inhibitory action (Particle Assay, GAG release from aggrecan-containing polyacrylamide particles)
T2 sequence (O75173 213-837): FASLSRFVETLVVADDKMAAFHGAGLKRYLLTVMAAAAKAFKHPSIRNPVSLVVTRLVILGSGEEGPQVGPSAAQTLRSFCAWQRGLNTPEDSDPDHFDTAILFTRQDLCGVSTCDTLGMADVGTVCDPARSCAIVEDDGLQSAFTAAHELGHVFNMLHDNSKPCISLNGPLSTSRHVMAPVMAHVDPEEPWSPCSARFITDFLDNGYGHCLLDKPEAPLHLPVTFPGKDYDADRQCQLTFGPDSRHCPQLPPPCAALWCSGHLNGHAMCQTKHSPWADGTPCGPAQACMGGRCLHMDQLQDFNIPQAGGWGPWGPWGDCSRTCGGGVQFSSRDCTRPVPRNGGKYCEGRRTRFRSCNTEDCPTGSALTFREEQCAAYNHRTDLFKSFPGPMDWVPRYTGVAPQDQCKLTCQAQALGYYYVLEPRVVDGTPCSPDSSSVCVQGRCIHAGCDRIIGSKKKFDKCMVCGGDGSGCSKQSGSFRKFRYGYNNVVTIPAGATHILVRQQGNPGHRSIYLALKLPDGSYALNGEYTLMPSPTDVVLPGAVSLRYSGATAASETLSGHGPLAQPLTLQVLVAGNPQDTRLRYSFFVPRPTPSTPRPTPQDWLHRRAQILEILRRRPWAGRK
In short: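 Readout was dimethylmethylene blue absorbance (595 nm) of glycosaminoglycan liberated into supernatant, calibrated with whale chondroitin sulfate. Substrate was aggrecan in polyacrylamide particles, digested 15 h at 37° C in Tris-HCl; TC50 (μM) derived from inhibition relative to no-enzyme and no-inhibitor controls.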

[3] = target: T3, Recombinant Human MMP-13 (Homo sapiens, UniProt P45452); assay: MMP-13 inhibitory activity (MMP-13 specific fluorescent substrate with quencher)
T3 construct: purchased R&D systems 511-MM
In short: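 IC50 (μM) derived from % inhibition, normalised to wells without enzyme and without inhibitor, fluorescence read at 325/405 nm. Enzyme and compound preceded addition of the quenched 7-MCA…DPA substrate; Tris-HCl buffer, 25 °C for 1 h, acetic-acid stop.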

[4] = MMP-1 inhibitory action, FITC-labeled collagen type I, 37° C. for 3 hr, read-out: IC50 MMP1 (Experimental Example 2)
[5] = aggrecanase-1 inhibitory action, read-out: IC50 AG1 (Experimental Example 1)
[6] = Recombinant Human MMP-13, fluorescent substrate, 25° C. for 1 h, read-out: IC50 MMP13 (Experimental Example 3)
[7] = Experimental Example 2, read-out: IC50 MMP1
[8] = Experimental Example 1, read-out: IC50 AG1
[9] = Experimental Example 3, read-out: IC50 MMP13

## CN1CCN(C(=O)Cc2cccc(C3CC3(NS(=O)(=O)c3ccc(-c4ccc(Cl)cc4)s3)C(=O)O)c2)CC1 (stereo not drawn) [Example 2-191]
[1]; [4]
  IC50: ≥ 10000 nM
[2]; [5]
  IC50: < 100 nM
[3]; [6]
  IC50: < 100 nM

## Cc1cnc(N2CCN(S(=O)(=O)N[C@@]3(C(=O)O)C(C)[C@@H]3c3ccccc3)CC2)s1 (stereo partly drawn) [Example 2-484]
[1]; [7]
  IC50: ≥ 10000 nM
[2]; [8]
  IC50: ≥ 1000 nM
[3]; [9]
  IC50: < 1000 nM

## O=C(O)C1(NS(=O)(=O)c2ccc(-c3ccc(Cl)cc3)s2)CC1c1cccc(NCc2cccnc2)c1 (stereo not drawn) [Example 1-129]
[1]; [4]
  IC50: ≥ 1000 nM
[2]; [5]
  IC50: < 100 nM
[3]; [6]
  IC50: < 100 nM

## CC1[C@H](c2ccccc2)[C@]1(NS(=O)(=O)c1ccc(-n2cc(C(F)(F)F)cn2)s1)C(=O)O (stereo partly drawn) [Example 2-577]
[1]; [7]
  IC50: < 1000 nM
[2]; [8]
  IC50: < 100 nM
[3]; [9]
  IC50: < 100 nM

## CC1CCC(N2CCN(S(=O)(=O)N[C@@]3(C(=O)O)C(C)[C@@H]3c3ccccc3)CC2)CC1 (stereo partly drawn) [Example 2-442]
[1]; [7]
  IC50: ≥ 10000 nM
[2]; [8]
  IC50: ≥ 1000 nM
[3]; [9]
  IC50: ≥ 1000 nM

## CC(O)c1cnn(-c2ccc(S(=O)(=O)N[C@@]3(C(=O)O)C(C)[C@@H]3c3ccccc3)s2)c1 (stereo partly drawn) [Example 2-547]
[1]; [7]
  IC50: < 100 nM
[2]; [8]
  IC50: < 100 nM
[3]; [9]
  IC50: < 100 nM

## O=C(O)[C@@]1(NS(=O)(=O)c2ccc3c(c2)Cc2cc(Br)ccc2-3)C[C@H]1c1ccccc1 [Example 1-109]
[1]; [4]
  IC50: ≥ 10000 nM
[2]; [5]
  IC50: < 1000 nM
[3]; [6]
  IC50: < 1000 nM

## C#Cc1ccc(S(=O)(=O)N[C@@]2(C(=O)O)C(C)[C@@H]2c2ccccc2)s1 (stereo partly drawn) [Example 2-424]
[1]; [7]
  IC50: < 1000 nM
[2]; [8]
  IC50: ≥ 10000 nM
[3]; [9]
  IC50: < 1000 nM

## CC1(C)C(c2ccccc2)C1(NS(=O)(=O)c1ccc(-c2cc(C(F)(F)F)on2)s1)C(=O)O (stereo not drawn) [Example 2-275]
[1]; [7]
  IC50: ≥ 1000 nM
[2]; [8]
  IC50: < 100 nM
[3]; [9]
  IC50: < 1000 nM

## O=C(O)[C@]1(NS(=O)(=O)c2ccc(-c3ccc(Cl)cc3)s2)C[C@@H]1c1cccc(CO)c1 [Example 2-182]
[1]; [4]
  IC50: ≥ 10000 nM
[2]; [5]
  IC50: < 100 nM
[3]; [6]
  IC50: < 100 nM

## O=C(NO)C1(NS(=O)(=O)c2ccc(OCc3ccc(Cl)cc3Cl)cc2)CC1c1ccccc1 (stereo not drawn) [Example 1-2, 1-[4-(2,4-Dichlorobenzyloxy)benzenesulfonylamino]-2-phenylcyclopropanecarboxylic acid hydroxyamide]
[1]; [4]
  IC50: ≥ 1000 nM
[2]; [5]
  IC50: < 100 nM
[3]; [6]
  IC50: < 100 nM

## O=C(Nc1ccccc1)c1ccc(S(=O)(=O)NC2(C(=O)O)CC2c2ccccc2)s1 (stereo not drawn) [Example 2-96]
[1]; [4]
  IC50: ≥ 10000 nM
[2]; [5]
  IC50: ≥ 10000 nM
[3]; [6]
  IC50: < 1000 nM

## C[C@]1(c2ccccc2)C[C@@]1(NS(=O)(=O)c1ccc(-c2ccc3c(c2)OCCO3)s1)C(=O)O [Example 2-485]
[1]; [7]
  IC50: ≥ 10000 nM
[2]; [8]
  IC50: < 1000 nM
[3]; [9]
  IC50: ≥ 1000 nM

## O=C(O)C1(NS(=O)(=O)c2ccc(-c3cc(C(F)(F)F)on3)s2)CC1(CN1CCOCC1)c1ccccc1 (stereo not drawn) [Example 2-322]
[1]; [7]
  IC50: ≥ 1000 nM
[2]; [8]
  IC50: < 100 nM
[3]; [9]
  IC50: < 1000 nM

## CC(C)c1cc(-c2ccc(S(=O)(=O)N[C@@]3(C(=O)O)C(C)[C@@H]3c3ccccc3)s2)no1 (stereo partly drawn) [Example 2-408]
[1]; [7]
  IC50: < 1000 nM
[2]; [8]
  IC50: < 100 nM
[3]; [9]
  IC50: < 100 nM

## CC1[C@H](c2ccccc2)[C@]1(NS(=O)(=O)c1ccc(Br)s1)C(=O)O (stereo partly drawn) [Example 2-427]
[1]; [7]
  IC50: < 1000 nM
[2]; [8]
  IC50: ≥ 10000 nM
[3]; [9]
  IC50: ≥ 1000 nM

## C[C@]1(c2ccccc2)C[C@@]1(NS(=O)(=O)c1cn2cc(-c3ccccc3)nc2s1)C(=O)O [Example 2-518]
[1]; [7]
  IC50: < 1000 nM
[2]; [8]
  IC50: < 1000 nM
[3]; [9]
  IC50: < 100 nM

## CC(=O)OCCc1cccc(C2CC2(NS(=O)(=O)c2ccc(-c3ccc(Cl)cc3)s2)C(=O)O)c1 (stereo not drawn) [Example 2-108]
[1]; [4]
  IC50: ≥ 1000 nM
[2]; [5]
  IC50: < 100 nM
[3]; [6]
  IC50: < 100 nM
